{
  "source": "paper PMC6749389",
  "about": "“Synthesis and In Vitro Anti-Toxoplasma gondii Activity of Novel Thiazolidin-4-one Derivatives” (Molecules, 2019)",
  "key": {"[1]": {"assay": "Cytotoxic assay (MTT, ISO 10993-5:2009(E)), 24 h treatment", "format": "cell-based", "settings": "L929 mouse fibroblast cells, L929 mouse fibroblasts, values above highest tested concentration extrapolated", "protocol": "The L929 mouse fibroblast (ATTC® CCL-1™, Manassas, VA, USA) were culturing according to the ATCC product sheet. […] The cell viability assay were performed precisely according to international standards (ISO 10993-5:2009(E)), using the tetrazolium salt [3-(4,5-dimethylthiazol-2-yl)-2,5-diphenyltetrazolium bromide] (MTT, Sigma-Aldrich) and mouse fibroblasts L929 cells. Cells (1 × 10^4 per well) were treated 24 h with compounds or drug in different concentration range. The optical density at 570 nm on the ELISA reader (Multiskan EX, Labsystems, Vienna, VA, USA), was read. The results were expressed as a percentage of viability compared to untreated cells. […] The CC30/CC50 represents the concentration of tested compounds or drugs that was required for 30% or 50% cells proliferation inhibition in vitro. According to the previously mentioned ISO 10993-5:2009(E) norm, the CC30 value is recognized as non-cytotoxic concentration for the cell line. All experiments were performed in triplicate."}},
  "data": [
    {"smiles": "CCOc1cc(C=NN=C2SC(CC(=O)O)C(=O)N2c2ccccc2)ccc1O", "note": "(stereo not drawn) [Compound 78, [2-{[(3-Ethoxy-4-hydroxyphenyl)methylidene]hydrazinylidene}-4-oxo-3-phenyl-1,3-thiazolidin-5-yl]acetic acid]", "values": [
      {"measurement": "melting point", "result": "224 to 226", "unit": "°C"},
      {"measurement": "CC50 at 24 h", "setting": "[1]", "result": "≥ 1000", "unit": "µM"}
    ]},
    {"smiles": "O=C(O)CC1SC(=NN=Cc2ccc(O)c(Cl)c2)N(c2ccccc2)C1=O", "note": "(stereo not drawn) [Compound 79, [2-{[(3-Chloro-4-hydroxyphenyl)methylidene]hydrazinylidene}-4-oxo-3-phenyl-1,3-thiazolidin-5-yl]acetic acid]", "values": [
      {"measurement": "melting point", "result": "244 to 246", "unit": "°C"},
      {"measurement": "CC50 at 24 h", "setting": "[1]", "result": "≥ 1000", "unit": "µM"}
    ]},
    {"smiles": "O=C1CSC(=NN=Cc2ccccc2O)N1c1cccc(Cl)c1", "note": "[Compound 52, 3-(3-Chlorophenyl)-2-{[(2-hydroxyphenyl)methylidene]hydrazinylidene}-1,3-thiazolidin-4-one]", "values": [
      {"measurement": "melting point", "result": "194 to 196", "unit": "°C"}
    ]},
    {"smiles": "COC(=O)C=C1SC(=NN=Cc2cccc(O)c2)N(c2ccccc2)C1=O", "note": "[Compound 90, Methyl [2-{[(3-hydroxyphenyl)methylidene]hydrazinylidene}-4-oxo-3-phenyl-1,3-thiazolidin-5-ylidene]acetate]", "values": [
      {"measurement": "melting point", "result": "236 to 238", "unit": "°C"},
      {"measurement": "CC50 at 24 h", "setting": "[1]", "result": 234, "unit": "µM"}
    ]},
    {"smiles": "O=C1CSC(=NN=Cc2ccc(O)c(Cl)c2)N1c1ccc(Cl)cc1", "note": "[Compound 62, 2-{[(3-Chloro-4-hydroxyphenyl)methylidene]hydrazinylidene}-3-(4-chlorophenyl)-1,3-thiazolidin-4-one]", "values": [
      {"measurement": "melting point", "result": "231 to 233", "unit": "°C"}
    ]},
    {"smiles": "O=C1CSC(=NN=Cc2ccc(O)cc2)N1c1cccc(Cl)c1", "note": "[Compound 54, 3-(3-Chlorophenyl)-2-{[(4-hydroxyphenyl)methylidene]hydrazinylidene}-1,3-thiazolidin-4-one]", "values": [
      {"measurement": "melting point", "result": "262 to 264", "unit": "°C"},
      {"measurement": "CC50 at 24 h", "setting": "[1]", "result": 289, "unit": "µM"}
    ]},
    {"smiles": "O=C1CSC(=NN=Cc2cccc(O)c2)N1c1ccccc1Cl", "note": "[Compound 49, 3-(2-Chlorophenyl)-2-{[(3-hydroxyphenyl)methylidene]hydrazinylidene}-1,3-thiazolidin-4-one]", "values": [
      {"measurement": "melting point", "result": "192 to 194", "unit": "°C"},
      {"measurement": "CC50 at 24 h", "setting": "[1]", "result": 188, "unit": "µM"}
    ]},
    {"smiles": "CCOc1cc(C=NN=C2SCC(=O)N2c2ccc(Cl)cc2)ccc1O", "note": "[Compound 61, 3-(4-Chlorophenyl)-2-{[(3-ethoxy-4-hydroxyphenyl)methylidene]hydrazinylidene}-1,3-thiazolidin-4-one]", "values": [
      {"measurement": "melting point", "result": "218 to 220", "unit": "°C"}
    ]},
    {"smiles": "COC(=O)C=C1SC(=NN=Cc2cccc(O)c2)N(c2ccc(Cl)cc2)C1=O", "note": "[Compound 98, Methyl [3-(4-chlorophenyl)-2-{[(3-hydroxyphenyl)methylidene]hydrazinylidene}-4-oxo-1,3-thiazolidin-5-ylidene]acetate]", "values": [
      {"measurement": "melting point", "result": "222 to 224", "unit": "°C"},
      {"measurement": "CC50 at 24 h", "setting": "[1]", "result": 167, "unit": "µM"}
    ]},
    {"smiles": "O=C(O)CC1SC(=NN=Cc2cccc(O)c2)N(c2ccccc2)C1=O", "note": "(stereo not drawn) [Compound 75, [2-{[(3-Hydroxyphenyl)methylidene]hydrazinylidene}-4-oxo-3-phenyl-1,3-thiazolidin-5-yl]acetic acid]", "values": [
      {"measurement": "melting point", "result": "214 to 216", "unit": "°C"},
      {"measurement": "CC50 at 24 h", "setting": "[1]", "result": "≥ 1000", "unit": "µM"}
    ]},
    {"smiles": "COc1cc(C=NN=C2SCC(=O)N2c2cccc(Cl)c2)ccc1O", "note": "[Compound 55, 3-(3-Chlorophenyl)-2-{[(4-hydroxy-3-methoxyphenyl)methylidene]hydrazinylidene}-1,3-thiazolidin-4-one]", "values": [
      {"measurement": "melting point", "result": "210 to 212", "unit": "°C"}
    ]},
    {"smiles": "CCOc1cc(C=NN=C2SCC(=O)N2c2cccc(Cl)c2)ccc1O", "note": "[Compound 56, 3-(3-Chlorophenyl)-2-{[(3-ethoxy-4-hydroxyphenyl)methylidene]hydrazinylidene}-1,3-thiazolidin-4-one]", "values": [
      {"measurement": "melting point", "result": "214 to 216", "unit": "°C"}
    ]},
    {"smiles": "O=C1CSC(=NN=Cc2ccc(O)c(Br)c2)N1c1ccc(F)cc1", "note": "[Compound 73, 2-{[(3-Bromo-4-hydroxyphenyl)methylidene]hydrazinylidene}-3-(4-fluorophenyl)-1,3-thiazolidin-4-one]", "values": [
      {"measurement": "melting point", "result": "224 to 226", "unit": "°C"}
    ]},
    {"smiles": "CCOc1cc(C=NN=C2SCC(=O)N2c2ccccc2Cl)ccc1O", "note": "[Compound 51, 3-(2-Chlorophenyl)-2-{[(3-ethoxy-4-hydroxyphenyl)methylidene]hydrazinylidene}-1,3-thiazolidin-4-one]", "values": [
      {"measurement": "melting point", "result": "196 to 198", "unit": "°C"}
    ]},
    {"smiles": "O=C1CSC(=NN=Cc2ccc(O)cc2)N1c1ccc(F)cc1", "note": "[Compound 69, 3-(4-Fluorophenyl)-2-{[(4-hydroxyphenyl)methylidene]hydrazinylidene}-1,3-thiazolidin-4-one]", "values": [
      {"measurement": "CC50 at 24 h", "setting": "[1]", "result": 386, "unit": "µM"}
    ]},
    {"smiles": "COc1cc(C=NN=C2SCC(=O)N2c2ccc(Cl)cc2)ccc1O", "note": "[Compound 60, 3-(4-Chlorophenyl)-2-{[(4-hydroxy-3-methoxyphenyl)methylidene]hydrazinylidene}-1,3-thiazolidin-4-one]", "values": [
      {"measurement": "melting point", "result": "226 to 228", "unit": "°C"}
    ]},
    {"smiles": "O=C1CSC(=NN=Cc2cccc(O)c2)N1c1ccc(Cl)cc1", "note": "[Compound 58, 3-(4-Chlorophenyl)-2-{[(3-hydroxyphenyl)methylidene]hydrazinylidene}-1,3-thiazolidin-4-one]", "values": [
      {"measurement": "melting point", "result": "230 to 232", "unit": "°C"},
      {"measurement": "CC50 at 24 h", "setting": "[1]", "result": 173, "unit": "µM"}
    ]},
    {"smiles": "O=C(O)CC1SC(=NN=Cc2ccc(O)cc2)N(c2ccccc2)C1=O", "note": "(stereo not drawn) [Compound 76, [2-{[(4-Hydroxyphenyl)methylidene]hydrazinylidene}-4-oxo-3-phenyl-1,3-thiazolidin-5-yl]acetic acid]", "values": [
      {"measurement": "melting point", "result": "236 to 238", "unit": "°C"},
      {"measurement": "CC50 at 24 h", "setting": "[1]", "result": "≥ 1000", "unit": "µM"}
    ]},
    {"smiles": "CCOc1cc(C=NN=C2SCC(=O)N2c2ccccc2)ccc1O", "note": "[Compound 45, 2-{[(3-Ethoxy-4-hydroxyphenyl)methylidene]hydrazinylidene}-3-phenyl-1,3-thiazolidin-4-one]", "values": [
      {"measurement": "melting point", "result": "229 to 230", "unit": "°C"}
    ]},
    {"smiles": "O=C(O)CC1SC(=NN=Cc2ccccc2O)N(c2ccccc2)C1=O", "note": "(stereo not drawn) [Compound 74, [2-{[(2-Hydroxyphenyl)methylidene]hydrazinylidene}-4-oxo-3-phenyl-1,3-thiazolidin-5-yl]acetic acid]", "values": [
      {"measurement": "melting point", "result": "228 to 230", "unit": "°C"},
      {"measurement": "CC50 at 24 h", "setting": "[1]", "result": 501, "unit": "µM"}
    ]},
    {"smiles": "O=C1CSC(=NN=Cc2ccc(O)cc2)N1c1ccccc1Cl", "note": "[Compound 50, 3-(2-Chlorophenyl)-2-{[(4-hydroxyphenyl)methylidene]hydrazinylidene}-1,3-thiazolidin-4-one]", "values": [
      {"measurement": "melting point", "result": "178 to 180", "unit": "°C"},
      {"measurement": "CC50 at 24 h", "setting": "[1]", "result": 226, "unit": "µM"}
    ]},
    {"smiles": "O=C1CSC(=NN=Cc2ccc(O)cc2)N1c1ccccc1", "note": "[Compound 43, 2-{[(4-Hydroxyphenyl)methylidene]hydrazinylidene}-3-phenyl-1,3-thiazolidin-4-one]", "values": [
      {"measurement": "CC50 at 24 h", "setting": "[1]", "result": 485, "unit": "µM"}
    ]},
    {"smiles": "COC(=O)C=C1SC(=NN=Cc2ccc(O)cc2)N(c2ccc(Cl)cc2)C1=O", "note": "[Compound 99, Methyl [3-(4-chlorophenyl)-2-{[(4-hydroxyphenyl)methylidene]hydrazinylidene}-4-oxo-1,3-thiazolidin-5-ylidene]acetate]", "values": [
      {"measurement": "melting point", "result": "250 to 251", "unit": "°C"},
      {"measurement": "CC50 at 24 h", "setting": "[1]", "result": 230, "unit": "µM"}
    ]},
    {"smiles": "O=C1CSC(=NN=Cc2ccc(O)c(Cl)c2)N1c1ccc(F)cc1", "note": "[Compound 72, 2-{[(3-Chloro-4-hydroxyphenyl)methylidene]hydrazinylidene}-3-(4-fluorophenyl)-1,3-thiazolidin-4-one]", "values": [
      {"measurement": "melting point", "result": "222 to 224", "unit": "°C"}
    ]},
    {"smiles": "O=C1CSC(=NN=Cc2ccc(O)c(Br)c2)N1c1ccccc1", "note": "[Compound 47, 2-{[(3-Bromo-4-hydroxyphenyl)methylidene]hydrazinylidene}-3-phenyl-1,3-thiazolidin-4-one]", "values": [
      {"measurement": "melting point", "result": "216 to 218", "unit": "°C"}
    ]},
    {"smiles": "COc1cc(C=NN=C2SCC(=O)N2c2ccc(Cl)cc2Cl)ccc1O", "note": "[Compound 64, 3-(2,4-Dichlorophenyl)-2-{[(4-hydroxy-3-methoxyphenyl)methylidene]hydrazinylidene}-1,3-thiazolidin-4-one]", "values": [
      {"measurement": "melting point", "result": "140 to 142", "unit": "°C"}
    ]},
    {"smiles": "O=C1CSC(=NN=Cc2ccccc2O)N1c1ccccc1Cl", "note": "[Compound 48, 3-(2-Chlorophenyl)-2-{[(2-hydroxyphenyl)methylidene]hydrazinylidene}-1,3-thiazolidin-4-one]", "values": [
      {"measurement": "melting point", "result": "168 to 170", "unit": "°C"}
    ]},
    {"smiles": "O=C1CSC(=NN=Cc2ccccc2O)N1c1ccc(Cl)cc1", "note": "[Compound 57, 3-(4-Chlorophenyl)-2-{[(2-hydroxyphenyl)methylidene]hydrazinylidene}-1,3-thiazolidin-4-one]", "values": [
      {"measurement": "melting point", "result": "238 to 240", "unit": "°C"}
    ]},
    {"smiles": "COc1cc(C=NN=C2SC(CC(=O)O)C(=O)N2c2ccccc2)ccc1O", "note": "(stereo not drawn) [Compound 77, [2-{[(4-Hydroxy-3-methoxyphenyl)methylidene]hydrazinylidene}-4-oxo-3-phenyl-1,3-thiazolidin-5-yl]acetic acid]", "values": [
      {"measurement": "CC50 at 24 h", "setting": "[1]", "result": "≥ 1000", "unit": "µM"}
    ]},
    {"smiles": "COc1cc(C=NN=C2SCC(=O)N2c2ccc(F)cc2)ccc1O", "note": "[Compound 70, 3-(4-Fluorophenyl)-2-{[(4-hydroxy-3-methoxyphenyl)methylidene]hydrazinylidene}-1,3-thiazolidin-4-one]", "values": [
      {"measurement": "melting point", "result": "236 to 238", "unit": "°C"}
    ]},
    {"smiles": "O=C1CSC(=NN=Cc2ccc(O)c(Br)c2)N1c1ccc(Cl)cc1", "note": "[Compound 63, 2-{[(3-Bromo-4-hydroxyphenyl)methylidene]hydrazinylidene}-3-(4-chlorophenyl)-1,3-thiazolidin-4-one]", "values": [
      {"measurement": "melting point", "result": "235 to 236", "unit": "°C"}
    ]},
    {"smiles": "CCOc1cc(C=NN=C2SCC(=O)N2c2ccc(F)cc2)ccc1O", "note": "[Compound 71, 2-{[(3-Ethoxy-4-hydroxyphenyl)methylidene]hydrazinylidene}-3-(4-fluorophenyl)-1,3-thiazolidin-4-one]", "values": [
      {"measurement": "melting point", "result": "240 to 242", "unit": "°C"}
    ]},
    {"smiles": "O=C1CSC(=NN=Cc2ccc(O)c(Cl)c2)N1c1ccccc1", "note": "[Compound 46, 2-{[(3-Chloro-4-hydroxyphenyl)methylidene]hydrazinylidene}-3-phenyl-1,3-thiazolidin-4-one]", "values": [
      {"measurement": "melting point", "result": "215 to 216", "unit": "°C"}
    ]}
  ]
}
